From publication PMC3606118, “Salvianolic Acid A, a Novel Matrix Metalloproteinase-9 Inhibitor, Prevents Cardiac Remodeling in Spontaneously Hypertensive Rats” (PLoS ONE, 2013)

Columns and labels:
MMP-9 CD [1] = molecular target: T1, MMP-9 CD (Homo sapiens, UniProt P14780, DEL217-390); test: Real time binding by surface plasmon resonance (Biacore); conditions: for Kd: steady state affinity fit model, immobilized MMP-9 CD, 25°C, read-out: equilibrium dissociation constant (KD); for binding on MMP-9 CD: surface plasmon resonance
T1 construct: corresponding to residues 107–216 and 391–444; made in house
T1 sequence (P14780 with tags, fused parts or gaps DEL217-390 limits assumed): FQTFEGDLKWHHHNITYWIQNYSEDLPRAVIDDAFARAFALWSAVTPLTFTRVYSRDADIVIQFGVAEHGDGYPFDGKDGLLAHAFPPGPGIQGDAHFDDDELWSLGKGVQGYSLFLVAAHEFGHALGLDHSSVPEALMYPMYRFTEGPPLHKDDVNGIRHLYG
Description: DNA fragments encoding the catalytic domain of MMP-9 (MMP-9 CD, corresponding to residues 107–216 and 391–444) were constructed and subcloned into a pET-15b vector (Novagen). […]. Surface plasmon resonance analysis was performed using Biacore 3000 (Biacore AB). In brief, MMP-9 CD protein (5.8 µmol/L) in 10 mmol/L sodium acetate buffer (pH 3.73) was covalently immobilized on the hydrophilic carboxymethylated dextran matrix of the CM5 sensor chip (BIAcore AB) using standard primary amine coupling procedure. Phenolic acid at various concentrations in HBS-EP running buffer (10 mmol/L HEPES pH 7.4, 150 mmol/L NaCl, 3.4 mmol/L EDTA and 0.005% surfactant P20) were injected at a constant flow rate of 30 µL/min at 25°C. All data were analyzed by BIAevaluation software and the sensorgrams were processed by automatic correction for nonspecific bulk refractive index effects.

MMP-9 CD [2] = molecular target: T1, MMP-9 CD; test: MMP-9 inhibition assay (thiopeptolide, enzyme kinetic analysis); assay type: biochemical; conditions: for Ki: spectrophotometric enzyme kinetic assay, thiopeptolide substrate; for inhibition on MMP-9 CD: enzyme kinetic assay
Description: Phenolic acids at the indicated concentrations were incubated with the reaction mixtures contained MMP-9 CD (15 nmol/L) and 5,5′-dithiobis-(2-nitrobenzoic acid) (1 mmol/L) at 4°C for 30 min. The reaction was initiated by the addition of thiopeptolide (Ac-Pro-Leu-Gly-S-Leu-Leu-Gly-OEt). Hydrolysis of thiopeptolide was monitored at 412 nm using Benchmark Plus™ microplate spectrophotometer (Bio-Rad) at room temperature. Kinetic analysis of phenolic acids against MMP-9 CD was calculated using double reciprocal plots of 1/V versus 1/[thiopeptolide]. The slope of every double reciprocal plot is the Km ^app/Vmax of enzyme at different compound concentration. Secondary plot was drawn through Km ^app/Vmax versus compound concentration. Km ^app is apparent value of Km; Ki is inhibition constant; Ki was calculated using the equation Ki = [Km/Vmax][compound]/(Km ^app/Vmax –Km/Vmax).

Structure (SMILES)	Kd (MMP-9 CD [1]) [µM]	Ki (MMP-9 CD [2]) [µM]	binding on MMP-9 CD (MMP-9 CD [1])	inhibition on MMP-9 CD (MMP-9 CD [2])
O=C(/C=C/c1ccc(O)c2oc(-c3ccc(O)c(O)c3)cc12)O[C@H](Cc1ccc(O)c(O)c1)C(=O)O [SalC, salvianolic acid C]	1.13	110 ± 33.1		
O=C(O)[C@H](O)Cc1ccc(O)c(O)c1 [danshensu]			Neither binding nor inhibition was found	Neither binding nor inhibition was found
O=C(/C=C/c1ccc(O)c2c1[C@H](C(=O)O)[C@@H](c1ccc(O)c(O)c1)O2)O[C@H](Cc1ccc(O)c(O)c1)C(=O)O [lithospermic acid]	66.2	324 ± 132		

Second part, the compound after the results:

Kd (MMP-9 CD [1]) [µM]	Ki (MMP-9 CD [2]) [µM]	binding on MMP-9 CD (MMP-9 CD [1])	inhibition on MMP-9 CD (MMP-9 CD [2])	Structure (SMILES)
		Neither binding nor inhibition was found	Neither binding nor inhibition was found	O=Cc1ccc(O)c(O)c1 [protocatechualdehyde]
10.7	126 ± 8.73			O=C(/C=C/c1ccc(O)c(O)c1)O[C@H](Cc1ccc(O)c(O)c1)C(=O)O [rosmarinic acid]
